From patent publication US10532987B2, “Compounds and methods for inducing browning of white adipose tissue” (GUANGZHOU INSTITUTES OF BIOMEDICINE AND HEALTH, CHINESE …, priority 2015, dated 2020)

What follows are molecules tested on Ucp1 (assay: UCP1 luciferase assay (Ucp1 up-regulation in differentiated inguinal adipocytes of Ucp1-luciferase knock-in mice)). Conditions: Mus musculus, Adipocyte, 48 h; at 0.3 μM; 2 days treatment; luciferase activity; read-out: Ucp1 activation fold/corresponding concentration.
Type: cell-based
Protocol: TEST EXAMPLE 1 UCP1 Luciferase Assay
Evaluating Compounds that Induce Ucp1 Up-Regulation
Ucp1-luciferase knock-in mice will be housed in cages and fed on standard chow diets (the detailed procedures please see reference 14). The 8-week-old mice will be killed by the cervical dislocation and put into 75% alcohol for 5 minutes. The inguinal adipose tissue will be dissected out and transferred to the three 10-cm petri dishes and washed with PBS for three times. The adipose tissue will be dissected and minced on a 10-cm petri dish for several minutes and then pipetted into 20 ml 0.1% collagenase solution in 50 ml conical tubes and digested at 37° C. for 1 hour. Next, 20 ml culture medium will be added to terminate the digestion and centrifuged for 10 minutes at 1000 rpm respectively. The supernatants will be removed and the pellets re-suspended in 10 mL culture medium and plated into 10-cm plates. The cells will be left to adhere to the plates overnight and the culture medium will be changed every other day. The confluent cells will be trypsinized, counted and plated to 24-well plate (5×10^4 cells/well). The cells will be washed and re-fed the next day (as day −2). Two days later (day 0), the cells will usually become confluent and be induced to differentiate with MDIR medium. On day 2, the medium will be changed to IR medium and re-fed every 2 days. Complete differentiation is usually achieved by day 10. On day 10, the medium will be changed to the culture medium of 10% FBS/DMEM with indicated drugs along with the positive and negative controls for 2 days. The media will be removed and the cells washed with 1 ml PBS per well three times. Then 100 μl lysis buffer will be used to lyse the cells at 4° C. for 1 hour. 30 μl culture medium, 30 μl cell lysates and 60 μl Steady-Glo® Reagent were added to a well of 96-well-plate and the luminescence will be measured using a luminometer. The protein concentration will be determined using 20 μl cell lysates and specific activity of luciferase will be tabulated and data analyzed.
COc1ccc(-c2csc(NC(=O)[C@@H]3CCCN3)n2)cc1OC [Compound 70, (S)—N-(4-(3,4-dimethoxyphenyl)thiazol-2-yl)pyrrolidine-2-carboxamide] gave a fold induction at 0.3 µM of 1.7.
CCOC(=O)N1CCC[C@H]1C(=O)Nc1nc(-c2ccc(OC)c(OC)c2)cs1 [Compound 71, (S)-ethyl 2-(4-(3,4-dimethoxyphenyl)thiazol-2-ylcarbamoyl)pyrrolidine-1-carboxylate] gave a fold induction at 0.3 µM of 1.7.

Same assay, conditions: Mus musculus, Adipocyte, 48 h; at 1 μM; 2 days treatment; luciferase activity; read-out: Ucp1 activation fold/corresponding concentration
N#Cc1ccc(-c2csc(Nc3ccccn3)n2)cc1 [Compound 49, 4-(2-(pyridin-2-ylamino)thiazol-4-yl)benzonitrile] was tested, and the fold induction at 1 µM was 3.9.
Work on CS(=O)(=O)c1ccc(-c2csc(Nc3ccccn3)n2)cc1 [Compound 51, 4-(4-(methylsulfonyl)phenyl)-N-(pyridin-2-yl)thiazol-2-amine] yielded a fold induction at 1 µM of 3.9.
O=C(c1ccc(-c2csc(Nc3ccccn3)n2)cc1)N1CCOCC1 [Compound 52, morpholino(4-(2-(pyridin-2-ylamino)thiazol-4-yl)phenyl)methanone] showed a fold induction at 1 µM of 5.1.
CCNC(=O)c1ccc(-c2csc(Nc3ccccn3)n2)cc1 [Compound 53, N-ethyl-4-(2-(pyridin-2-ylamino)thiazol-4-yl)benzamide] gave a fold induction at 1 µM of 3.
Molecule c1ccc(Nc2nc(-c3ccc(CN4CCOCC4)cc3)cs2)nc1 [Compound 54, 4-(4-(morpholinomethyl)phenyl)-N-(pyridin-2-yl)thiazol-2-amine] has a fold induction at 1 µM of 3.9.
For CN1CCN(C(=O)c2ccc(-c3csc(Nc4ccccn4)n3)cc2)CC1 [Compound 59, (4-methylpiperazin-1-yl)(4-(2-(pyridin-2-ylamino)thiazol-4-yl)phenyl)methanone], the fold induction at 1 µM was 4.
For O=C(Nc1cccnc1)c1ccc(-c2csc(Nc3ccccn3)n2)cc1 [Compound 64, 4-(2-(pyridin-2-ylamino)thiazol-4-yl)-N-(pyridin-3-yl)benzamide], the fold induction at 1 µM was 1.1.
In the case of C#Cc1ccc(-c2csc(Nc3ccccn3)n2)cc1 [Compound 78, 4-(4-ethynylphenyl)-N-(pyridin-2-yl)thiazol-2-amine], the fold induction at 1 µM is reported as 2.3.
c1ccc(Nc2nc(-c3ccc4c(c3)CCC4)cs2)nc1 [Compound 81, 4-(2,3-dihydro-1H-inden-5-yl)-N-(pyridin-2-yl)thiazol-2-amine] showed a fold induction at 1 µM of 2.
Molecule c1ccc(Nc2nc(-c3ccc4c(c3)OCO4)cs2)nc1 [Compound 82, 4-(benzo[d][1,3]dioxol-5-yl)-N-(pyridin-2-yl)thiazol-2-amine] has a fold induction at 1 µM of 2.4.

Same assay, conditions: Mus musculus, Adipocyte, 48 h; at 3 μM; 2 days treatment; luciferase activity; read-out: Ucp1 activation fold/corresponding concentration
In the case of c1ccc(-c2ccc(-c3csc(Nc4ccccn4)n3)cc2)cc1 [Compound 50, 4-(biphenyl-4-yl)-N-(pyridin-2-yl)thiazol-2-amine], the fold induction at 3 µM is reported as 2.4.
c1ccc(CNc2ccc(-c3csc(Nc4ccccn4)n3)cc2)cc1 [Compound 55, 4-(4-(benzylamino)phenyl)-N-(pyridin-2-yl)thiazol-2-amine] was tested, and the fold induction at 3 µM was 2.
In the case of CC(C)(C)CNc1ccc(-c2csc(Nc3ccccn3)n2)cc1 [Compound 56, 4-(4-(neopentylamino)phenyl)-N-(pyridin-2-yl)thiazol-2-amine], the fold induction at 3 µM is reported as 2.3.
CC(C)NC(=O)c1ccc(-c2csc(Nc3ccccn3)n2)cc1 [Compound 57, N-isopropyl-4-(2-(pyridin-2-ylamino)thiazol-4-yl)benzamide] showed a fold induction at 3 µM of 3.5.
In the case of O=C(Nc1ccccc1)c1ccc(-c2csc(Nc3ccccn3)n2)cc1 [Compound 58, N-phenyl-4-(2-(pyridin-2-ylamino)thiazol-4-yl)benzamide], the fold induction at 3 µM is reported as 1.4.
Molecule CC(=O)OCc1ccc(-c2csc(Nc3ccccn3)n2)cc1 [Compound 60, 4-(2-(pyridin-2-ylamino)thiazol-4-yl)benzyl acetate] has a fold induction at 3 µM of 2.6.
Molecule CC(=O)N1CCC(c2ccc(-c3csc(Nc4ccccn4)n3)cc2)CC1 [Compound 61, 1-(4-(4-(2-(pyridin-2-ylamino)thiazol-4-yl)phenyl)piperidin-1-yl)ethanone] has a fold induction at 3 µM of 3.2.
COCCOCCNC(=O)c1ccc(-c2csc(Nc3ccccn3)n2)cc1 [Compound 62, N-(2-(2-methoxyethoxy)ethyl)-4-(2-(pyridin-2-ylamino)thiazol-4-yl)benzamide] was tested, and the fold induction at 3 µM was 2.2.
For Clc1ccc(-c2csc(Nc3ccccn3)n2)cc1 [Compound 63, 4-(4-chlorophenyl)-N-(pyridin-2-yl)thiazol-2-amine], the fold induction at 3 µM was 5.9.
In the case of O=C(Nc1ccncc1)c1ccc(-c2csc(Nc3ccccn3)n2)cc1 [Compound 65, 4-(2-(pyridin-2-ylamino)thiazol-4-yl)-N-(pyridin-4-yl)benzamide], the fold induction at 3 µM is reported as 1.1.
With CCN(CC)C(=O)c1ccc(-c2csc(Nc3ccccn3)n2)cc1 [Compound 66, N,N-diethyl-4-(2-(pyridin-2-ylamino)thiazol-4-yl)benzamide] the fold induction at 3 µM was 1.
CCOC(=O)[C@@H]1CCCN1C(=O)c1ccc(-c2csc(Nc3ccccn3)n2)cc1 [Compound 67, (S)-ethyl 1-(4-(2-(pyridin-2-ylamino)thiazol-4-yl)benzoyl)pyrrolidine-2-carboxylate] showed a fold induction at 3 µM of 3.1.
Work on O=C(Nc1ccc(Cl)cc1)c1csc(Nc2ccccn2)n1 [Compound 68, N-(4-chlorophenyl)-2-(pyridin-2-ylamino)thiazole-4-carboxamide] yielded a fold induction at 3 µM of 1.3.
With O=C(Nc1ccccn1)c1ccc(-c2csc(Nc3ccccn3)n2)cc1 [Compound 69, N-(pyridin-2-yl)-4-(2-(pyridin-2-ylamino)thiazol-4-yl)benzamide] the fold induction at 3 µM was 4.6.
Molecule c1ccc(Nc2nc(-c3ccc(CN4CCCCC4)cc3)cs2)nc1 [Compound 72, 4-(4-(piperidin-1-ylmethyl)phenyl)-N-(pyridin-2-yl)thiazol-2-amine] has a fold induction at 3 µM of 1.8.
In the case of CC(=O)c1ccc(-c2csc(Nc3ccccn3)n2)cc1 [Compound 73, 1-(4-(2-(pyridin-2-ylamino)thiazol-4-yl)phenyl)ethanone], the fold induction at 3 µM is reported as 1.2.
In the case of O=C(NO)c1ccc(-c2csc(Nc3ccccn3)n2)cc1 [Compound 74, N-hydroxy-4-(2-(pyridin-2-ylamino)thiazol-4-yl)benzamide], the fold induction at 3 µM is reported as 3.
Work on Clc1cccc(-c2csc(Nc3ccccn3)n2)c1Cl [Compound 75, 4-(2,3-dichlorophenyl)-N-(pyridin-2-yl)thiazol-2-amine] yielded a fold induction at 3 µM of 1.1.
Molecule c1ccc(Nc2nc(-c3ccc(-c4ccsc4)cc3)cs2)nc1 [Compound 76, N-(pyridin-2-yl)-4-(4-(thiophen-3-yl)phenyl)thiazol-2-amine] has a fold induction at 3 µM of 1.8.
Molecule c1ccc(Nc2nc(-c3ccc(-c4nn[nH]n4)cc3)cs2)nc1 [Compound 77, 4-(4-(2H-tetrazol-5-yl)phenyl)-N-(pyridin-2-yl)thiazol-2-amine] has a fold induction at 3 µM of 1.1.
For c1ccc(Nc2nc(-c3ccc(-c4ccncc4)cc3)cs2)nc1 [Compound 79, N-(pyridin-2-yl)-4-(4-(pyridin-4-yl)phenyl)thiazol-2-amine], the fold induction at 3 µM was 1.8.
Molecule Cc1ccc(-c2csc(Nc3ccccn3)n2)cc1C [Compound 80, 4-(3,4-dimethylphenyl)-N-(pyridin-2-yl)thiazol-2-amine] has a fold induction at 3 µM of 1.5.
For Cc1cc(-c2csc(Nc3ccccn3)n2)ccc1N [Compound 83, 4-(4-amino-3-methylphenyl)-N-(pyridin-2-yl)thiazol-2-amine], the fold induction at 3 µM was 6.
